In one test the test system is ROS in hair follicles. The test can be described thus: Reactive Oxygen Species (ROS) assay on individual follicles. The test is classed as cell-based, human. The settings on record: NAC pretreatment, ionizing radiation 4, 8 or 12 Gy or 3% H2O2; ROS labeling 2 hours after treatment; compared to IR or H2O2 alone. The protocol:
A Reactive Oxygen Species (ROS) assay was used for individual follicle observation with 5-(and-6)-chloromethyl-2′,7′-dichlorodihydrofluorescein diacetate, acetyl ester (CM-H2DCFDA). CM-H2DCFDA is a chloromethyl derivative of […], 2′,7′-dichlorohydrofluorescein diacetate (H2DCFDA), and is useful as an indicator for general ROS in cells. ROS should be labeled after 2 hours and imaged in 20 minutes, and the protocol included dissection of the follicles first before H2O2 treatment. […] The ROS detection protocol was as follows: (1) tissue preparation and culture (2) Isolation of individual follicles (3) Vertically embedding in semisolid media (4) Antioxidant treatment (NAC) on the bulge area of the hair follicles (5) Incubation for […]. (6) Treatment with ionizing radiation (e.g., 8.0 Gray) or H2O2 (7) Incubation for 2 hrs. […] NAC was applied for 24 hours before the ionizing radiation or H2O2 treatment and then 2 hours after treatment, ROS labeling and imaging have been done. The ionizing radiation was administered at doses of 4 gy, 8 Gy, or 12 Gy. Topical administration of hydrogen peroxide was used at a dose of 3%. The ROS positive cells were counted and they were normalized to DAPI positive cells.

For test [1], the system named is human primary hair follicles (melanocyte stem cells at the bulge area). The experiment in a line: Pigmentation assay on isolated human primary hair follicles in culture, H2O2 stress. The settings on record: positive control, 3% H2O2. The test is classed as cell-based. The text has this:
A novel platform for assaying human primary hair follicles in culture was developed to profile anti-graying potentially active agents (see FIG. 1). Normal human scalp specimens were obtained from various surgeries or from donor and recipient scalp hair derived from plastic surgery. […] Intact human skin specimens were implanted in semi-solid agarose (2% agarose diluted with Williams' medium E (Gibco™) at 1:5 ratio). The hair follicle culture medium was based on Williams' medium E (Gibco™) supplemented with 2 mmol/L L-glutamine, hydrocortisone 10 ng/ml, insulin 10 μg/ml, penicillin 100 U/ml, streptomycin 100 μg/ml, and amphotericin B 25 μg/ml. To maximize the effects of the test formulations and to exclude the variability of delivery ability of the formulations through the epidermis, the test formulations were applied directly at the bulge area of the follicles using the method as follows: (1) tissue preparation and culture for 8-24 hrs. (2) Isolation of individual follicles (3) Vertically embedding in semisolid media (4) Treatment with test formulation/Positive control on the bulge area of the hair follicles (5) Incubation for 24 hrs. (6) 3% H2O2 treatment (7) Incubation for 2 hrs. (8) Repositioning in semisolid media (9) Z-stacking imaging & Analysis on day 1, 3, 7 after H2O2 treatment For the experiment, a total of 602 follicles from 9 different donors were utilized. […]

In test [2] the test system is melanocyte stem cells (MSCs) in the bulge areas of hair follicles of human scalp skin. The experiment in a line: Melanocyte stem cell damage and pigmentation assay, topical application on intact human skin specimens. The format is cell-based. The settings on record: topical 24 hours, then 3% H2O2 24 hours; eight follicles per treatment. The protocol: Formulation A, placebo A, or the positive control (CPC) were topically applied to the human skin specimens for 24 hours. The specimens were next treated with 3% hydrogen peroxide (H2O2) for 24 hours at 37° C. and incubated in 5% CO2 to trigger the DNA-damage response. After 24 hours of hydrogen peroxide treatment, all portions of the hair follicles were isolated from stress treated human skin scalp. Upon isolation, the hair follicles were washed gently several times in Phosphate-buffered saline (PBS) and transferred intact into soft agar with fresh growth medium in a cell culture incubator at 37° C. and 5% CO2. Hair follicles were examined under bright field microscopy after completion of the hydrogen peroxide treatment daily from day 0 (completion of peroxide treatment) to day 7. Pigmented melanocyte stem cells (MSCs) found in the bulge areas of hair follicles were counted in the bright field view. Formulation A and Placebo A, and the positive control (CPC) were tested, and eight follicles were investigated from each treatment. Paired T-test was applied for data analysis. […] P-value of 0.05 was set as the threshold of statistical significance. […] Eight follicles were analyzed in each test set.

A further test has as its system hair follicles. The experiment in a line: Pigmented cell counts after NAC treatment (FIG. 12). The conditions noted are these: statistical significance not evaluable. The format is cell-based, human.

The values below come from US20190167561A1, “METHODS AND COMPOSITIONS FOR REDUCING THE GRAYING OF HAIR” (Natura Cosmeticos SA, priority 2016, published 2019).

Each structure is given as a SMILES string.

As to `CC(=O)N[C@@H](CS)C(=O)O` [NAC, N-acetyl-cysteine], the “ROS generation (ROS positive cells normalized to DAPI positive cells)” value in the test with ROS in hair follicles is “decreased compared to IR or H2O2 treatment alone”. In test [1], the “pigmentation prevention at the bulge area of the follicle” value is “effective on the pigmentation prevention with statistical significance”. The hydrogen peroxide-induced pigmentation result in test [2] was “suppressed”. Besides, in the test with hair follicles, the “pigmented cell counts after the NAC treatment” value is recorded as “tendency showing decreased pigmented cell counts”.
